Converted amounts (≈) assume the structure as drawn.
Experiments:
Format in all cases: functional
[1] = tested on: Salmonella typhi; assay: Antimicrobial activity against Salmonella enterica subsp. enterica serovar Typhi MTCC 733 assessed as diameter of growth inhibition zone after 24 hr
[2] = tested on: Proteus vulgaris; assay: Antimicrobial activity against Proteus vulgaris MTCC 1771 assessed as growth inhibition after 24 hr by agar streak dilution method; details: MTCC 1771, 24 h
[3] = tested on: Aspergillus niger; assay: Antimicrobial activity against Aspergillus niger MTCC 282 assessed as growth inhibition after 48 hr by agar streak dilution method; details: MTCC 282, 48 h
[4] = tested on: Aspergillus niger; assay: Antimicrobial activity against Aspergillus niger MTCC 282 assessed as diameter of growth inhibition zone after 48 hr
[5] = tested on: Shigella flexneri; assay: Antimicrobial activity against Shigella flexneri MTCC1457 assessed as growth inhibition after 24 hr by agar streak dilution method; details: MTCC1457, 24 h
[6] = tested on: Aspergillus clavatus; assay: Antimicrobial activity against Aspergillus clavatus MTCC 1323 assessed as diameter of growth inhibition zone after 48 hr
[7] = tested on: Staphylococcus aureus; assay: Antimicrobial activity against Staphylococcus aureus MTCC 96 assessed as growth inhibition after 24 hr by agar streak dilution method; details: MTCC 96, 24 h
[8] = tested on: Pseudomonas aeruginosa; assay: Antimicrobial activity against Pseudomonas aeruginosa MTCC 741 assessed as diameter of growth inhibition zone after 24 hr
[9] = tested on: Aspergillus clavatus; assay: Antimicrobial activity against Aspergillus clavatus MTCC 1323 assessed as growth inhibition after 48 hr by agar streak dilution method; details: MTCC 1323, 48 h
[10] = tested on: Escherichia coli; assay: Antimicrobial activity against Escherichia coli MTCC 739 assessed as growth inhibition after 24 hr by agar streak dilution method; details: MTCC 739, 24 h
[11] = tested on: Klebsiella pneumoniae; assay: Antimicrobial activity against Klebsiella pneumoniae MTCC 109 assessed as growth inhibition after 24 hr by agar streak dilution method; details: MTCC 109, 24 h
[12] = tested on: Staphylococcus aureus; assay: Antimicrobial activity against Staphylococcus aureus MTCC 96 assessed as diameter of growth inhibition zone after 24 hr
[13] = tested on: Aspergillus fumigatus; assay: Antimicrobial activity against Aspergillus fumigatus MTCC 343 assessed as diameter of growth inhibition zone after 48 hr
[14] = tested on: Aspergillus fumigatus; assay: Antimicrobial activity against Aspergillus fumigatus MTCC 343 assessed as growth inhibition after 48 hr by agar streak dilution method; details: MTCC 343, 48 h
[15] = tested on: Shigella flexneri; assay: Antimicrobial activity against Shigella flexneri MTCC1457 assessed as diameter of growth inhibition zone after 24 hr
[16] = tested on: Candida albicans; assay: Antimicrobial activity against Candida albicans MTCC 183 assessed as growth inhibition after 48 hr by agar streak dilution method; details: MTCC 183, 48 h
[17] = tested on: Salmonella typhi; assay: Antimicrobial activity against Salmonella enterica subsp. enterica serovar Typhi MTCC 733 assessed as growth inhibition after 24 hr by agar streak dilution method; details: MTCC 733, 24 h
[18] = tested on: Candida albicans; assay: Antimicrobial activity against Candida albicans MTCC 183 assessed as diameter of growth inhibition zone after 48 hr
[19] = tested on: Bacillus cereus; assay: Antimicrobial activity against Bacillus cereus MTCC 430 assessed as growth inhibition after 24 hr by agar streak dilution method; details: MTCC 430, 24 h
[20] = tested on: Bacillus cereus; assay: Antimicrobial activity against Bacillus cereus MTCC 430 assessed as diameter of growth inhibition zone after 24 hr
[21] = tested on: Klebsiella pneumoniae; assay: Antimicrobial activity against Klebsiella pneumoniae MTCC 109 assessed as diameter of growth inhibition zone after 24 hr
[22] = tested on: Pseudomonas aeruginosa; assay: Antimicrobial activity against Pseudomonas aeruginosa MTCC 741 assessed as growth inhibition after 24 hr by agar streak dilution method; details: MTCC 741, 24 h
[23] = tested on: Proteus vulgaris; assay: Antimicrobial activity against Proteus vulgaris MTCC 1771 assessed as diameter of growth inhibition zone after 24 hr
[24] = tested on: Mycobacterium tuberculosis; assay: Antituberculosis activity against Mycobacterium tuberculosis H37Rv assessed as growth inhibition after 12 to 28 days by L-J MIC method; details: for MIC: Mycobacterium tuberculosis, H37Rv
[25] = tested on: Escherichia coli; assay: Antimicrobial activity against Escherichia coli MTCC 739 assessed as diameter of growth inhibition zone after 24 hr

Structure (SMILES) | diameter of the inhibition zone (DIZ) [1] | MIC [2] | MIC [3] | diameter of the inhibition zone (DIZ) [4] | MIC [5] | diameter of the inhibition zone (DIZ) [6] | MIC [7] | diameter of the inhibition zone (DIZ) [8] | MIC [9] | MIC [10] | MIC [11] | diameter of the inhibition zone (DIZ) [12] | diameter of the inhibition zone (DIZ) [13] | MIC [14] | diameter of the inhibition zone (DIZ) [15] | MIC [16] | MIC [17] | diameter of the inhibition zone (DIZ) [18] | MIC [19] | diameter of the inhibition zone (DIZ) [20] | further results
Nc1nc(-c2ccc(Nc3cc(=O)oc4ccccc34)cc2)cc(-c2ccc(O)cc2O)n1 | 24 mm | 3.12 µg/mL (≈ 7.12 µM) | 12.5 µg/mL (≈ 28.5 µM) | 22 mm | 12.5 µg/mL (≈ 28.5 µM) | 25 mm | 12.5 µg/mL (≈ 28.5 µM) | 23 mm | 6.25 µg/mL (≈ 14.3 µM) | 12.5 µg/mL (≈ 28.5 µM) | 6.25 µg/mL (≈ 14.3 µM) | 21 mm | 25 mm | 12.5 µg/mL (≈ 28.5 µM) | 23 mm | 25 µg/mL (≈ 57 µM) | 12.5 µg/mL (≈ 28.5 µM) | 21 mm | 12.5 µg/mL (≈ 28.5 µM) | 21 mm | diameter of the inhibition zone (DIZ) [21]: 26 mm; MIC [22]: 12.5 µg/mL (≈ 28.5 µM); diameter of the inhibition zone (DIZ) [23]: 28 mm; growth inhibition (GI) [24]: 97%; MIC [24]: 200 µg/mL (≈ 456 µM); diameter of the inhibition zone (DIZ) [25]: 22 mm
Nc1nc(-c2ccc(Cl)cc2)cc(-c2ccc(Nc3cc(=O)oc4ccccc34)cc2)n1 | 20 mm | 12.5 µg/mL (≈ 28.4 µM) | 50 µg/mL (≈ 113 µM) | 17 mm | 25 µg/mL (≈ 56.7 µM) | 17 mm | 50 µg/mL (≈ 113 µM) | 16 mm | 50 µg/mL (≈ 113 µM) | 50 µg/mL (≈ 113 µM) | 12.5 µg/mL (≈ 28.4 µM) | 20 mm | 19 mm | 25 µg/mL (≈ 56.7 µM) | 21 mm | 12.5 µg/mL (≈ 28.4 µM) | 25 µg/mL (≈ 56.7 µM) | 21 mm | 50 µg/mL (≈ 113 µM) | 19 mm | diameter of the inhibition zone (DIZ) [21]: 22 mm; MIC [22]: 100 µg/mL (≈ 227 µM); diameter of the inhibition zone (DIZ) [23]: 23 mm; growth inhibition (GI) [24]: 97%; MIC [24]: 200 µg/mL (≈ 454 µM); diameter of the inhibition zone (DIZ) [25]: 18 mm
CC(=O)N1N=C(c2ccc(Nc3cc(=O)oc4ccccc34)cc2)CC1c1ccc(Cl)cc1Cl (configuration not stated) | 17 mm | 12.5 µg/mL (≈ 25.4 µM) | 100 µg/mL (≈ 203 µM) | 17 mm | 50 µg/mL (≈ 102 µM) | 16 mm | 12.5 µg/mL (≈ 25.4 µM) | 20 mm | 100 µg/mL (≈ 203 µM) | 50 µg/mL (≈ 102 µM) | 25 µg/mL (≈ 50.8 µM) | 22 mm | 19 mm | 50 µg/mL (≈ 102 µM) | 17 mm | 100 µg/mL (≈ 203 µM) | 50 µg/mL (≈ 102 µM) | 15 mm | 12.5 µg/mL (≈ 25.4 µM) | 21 mm | diameter of the inhibition zone (DIZ) [21]: 19 mm; MIC [22]: 25 µg/mL (≈ 50.8 µM); diameter of the inhibition zone (DIZ) [23]: 22 mm; growth inhibition (GI) [24]: 96%; MIC [24]: 500 µg/mL (≈ 1020 µM); diameter of the inhibition zone (DIZ) [25]: 18 mm
N#Cc1c(-c2ccccc2O)cc(-c2ccc(Nc3cc(=O)oc4ccccc34)cc2)nc1N | 25 mm | 12.5 µg/mL (≈ 28 µM) | 12.5 µg/mL (≈ 28 µM) | 25 mm | 12.5 µg/mL (≈ 28 µM) | 27 mm | 12.5 µg/mL (≈ 28 µM) | 24 mm | 6.25 µg/mL (≈ 14 µM) | 12.5 µg/mL (≈ 28 µM) | 3.12 µg/mL (≈ 6.99 µM) | 21 mm | 25 mm | 6.25 µg/mL (≈ 14 µM) | 21 mm | 25 µg/mL (≈ 56 µM) | 6.25 µg/mL (≈ 14 µM) | 24 mm | 12.5 µg/mL (≈ 28 µM) | 22 mm | diameter of the inhibition zone (DIZ) [21]: 28 mm; MIC [22]: 12.5 µg/mL (≈ 28 µM); diameter of the inhibition zone (DIZ) [23]: 22 mm; growth inhibition (GI) [24]: 97%; MIC [24]: 25 µg/mL (≈ 56 µM); diameter of the inhibition zone (DIZ) [25]: 24 mm
COc1ccc(-c2cc(-c3ccc(Nc4cc(=O)oc5ccccc45)cc3)nc(N)c2C#N)cc1OC | 27 mm | 6.25 µg/mL (≈ 12.7 µM) | 6.25 µg/mL (≈ 12.7 µM) | 27 mm | 6.25 µg/mL (≈ 12.7 µM) | 25 mm | 3.12 µg/mL (≈ 6.36 µM) | 25 mm | 6.25 µg/mL (≈ 12.7 µM) | 6.25 µg/mL (≈ 12.7 µM) | 3.12 µg/mL (≈ 6.36 µM) | 29 mm | 28 mm | 3.12 µg/mL (≈ 6.36 µM) | 27 mm | 6.25 µg/mL (≈ 12.7 µM) | 3.12 µg/mL (≈ 6.36 µM) | 27 mm | 6.25 µg/mL (≈ 12.7 µM) | 26 mm | diameter of the inhibition zone (DIZ) [21]: 28 mm; MIC [22]: 6.25 µg/mL (≈ 12.7 µM); diameter of the inhibition zone (DIZ) [23]: 25 mm; growth inhibition (GI) [24]: 99%; MIC [24]: 12.5 µg/mL (≈ 25.5 µM); diameter of the inhibition zone (DIZ) [25]: 26 mm
Nc1nc(-c2ccc(Nc3cc(=O)oc4ccccc34)cc2)cc(-c2ccccc2O)n1 | 17 mm | 50 µg/mL (≈ 118 µM) | 25 µg/mL (≈ 59.2 µM) | 21 mm | 25 µg/mL (≈ 59.2 µM) | 25 mm | 50 µg/mL (≈ 118 µM) | 18 mm | 6.25 µg/mL (≈ 14.8 µM) | 50 µg/mL (≈ 118 µM) | 12.5 µg/mL (≈ 29.6 µM) | 18 mm | 23 mm | 12.5 µg/mL (≈ 29.6 µM) | 20 mm | 50 µg/mL (≈ 118 µM) | 100 µg/mL (≈ 237 µM) | 18 mm | 50 µg/mL (≈ 118 µM) | 19 mm | diameter of the inhibition zone (DIZ) [21]: 21 mm; MIC [22]: 50 µg/mL (≈ 118 µM); diameter of the inhibition zone (DIZ) [23]: 19 mm; growth inhibition (GI) [24]: 97%; MIC [24]: 250 µg/mL (≈ 592 µM); diameter of the inhibition zone (DIZ) [25]: 19 mm
Nc1nc(-c2ccc(Nc3cc(=O)oc4ccccc34)cc2)cc(-c2ccc(Cl)cc2Cl)n1 | 20 mm | 6.25 µg/mL (≈ 13.1 µM) | 25 µg/mL (≈ 52.6 µM) | 20 mm | 25 µg/mL (≈ 52.6 µM) | 19 mm | 12.5 µg/mL (≈ 26.3 µM) | 22 mm | 50 µg/mL (≈ 105 µM) | 50 µg/mL (≈ 105 µM) | 25 µg/mL (≈ 52.6 µM) | 24 mm | 22 mm | 12.5 µg/mL (≈ 26.3 µM) | 21 mm | 25 µg/mL (≈ 52.6 µM) | 25 µg/mL (≈ 52.6 µM) | 21 mm | 12.5 µg/mL (≈ 26.3 µM) | 22 mm | diameter of the inhibition zone (DIZ) [21]: 21 mm; MIC [22]: 25 µg/mL (≈ 52.6 µM); diameter of the inhibition zone (DIZ) [23]: 25 mm; growth inhibition (GI) [24]: 98%; MIC [24]: 200 µg/mL (≈ 421 µM); diameter of the inhibition zone (DIZ) [25]: 19 mm

— ChEMBL document CHEMBL3045446, “In vitro antimicrobial and antimycobacterial activity of some chalcones and their derivatives” (2013)
